This is an account of results in patent publication US11186588B2 (AYUMI PHARMACEUTICAL CORPORATION, priority 2017, dated 2021).

Usually IC50 stands for the point on the concentration scale where inhibition reaches its midpoint. What is called inhibition is the relative decrease from the control value, in per cent.

The subject of one assay is NF-κB. As to the kind of experiment: NF-κB reporter gene assay (TNF-α stimulated A549/NF-κB-luc cells). Type of assay: cell-based. The following applies: Homo sapiens, TNF-α stimulation. The protocol:
In order to evaluate NF-κB inhibitory activity of the present compounds, NF-κB reporter gene assay was carried out. The specific method is described below.
Gene recombinant human TNF-α (available from R&D systems, Cat No. 210-TA) was dissolved in D-PBS(−) (available from Wako Pure Chemical Industries, Ltd., Cat No. 293-72601) to prepare 100 μg/mL of TNF-α solution stock solution. 100 μg/mL of the TNF-α solution stock solution was diluted with the culture medium to prepare 10 ng/mL of TNF-α solution.
A549/NF-κB-luc cells (available from Panomics, Cat No. LR0051) were prepared at 375,000 cells/mL in the culture medium. The 375,000 cells/mL A549/NF-κB-luc cell suspension was seeded at 80 μL each on a white 96-well plate (available from Greiner, Cat No. 655073). One hour after seeding the cells, 10 μL of 2% DMSO solution (control) and each compound solution in each concentration were added to each well of the 96-well plate. One hour after the addition of each compound solution, 10 ng/mL of the TNF-α solution (10 μL) was added to each well of the 96-well plate. Three hours after the addition of 10 ng/mL of the TNF-α solution, 100 μL of Steady-Glo reagent (available from Promega, Cat No. E2510) was added to each well of the 96-well plate. After 30 to 90 minutes of the addition of the Steady-Glo reagent, the luminescence intensity of each well was detected by EnVision multilabel counter (available from PerkinElmer).
NF-κB inhibition rate (%) was calculated by the following equation using Microsoft EXCEL 2010. NF-κB inhibition rate (%)=100−{(luminescence intensity average value of each compound added well)−(average value of luminescence intensity of blank well))/(average value of luminescence intensity of control well)−(average value of luminescence intensity of blank well)}×100 In addition, IC50 values were calculated from the calculated NF-κB inhibition rate (%) using curve fitting software XLfit (available from IDBS).

Assay [1] concerns the target Recombinant BRD4 (44-168) protein (Homo sapiens (Human), UniProt O60885). As to the kind of experiment: BRD4-H4KAc4 binding assay (amplified luminescence proximity homogeneous assay, AlphaScreen). Conditions: 10 uM. The protocol: In order to evaluate BRD4 inhibitory activity of the present compounds, BRD4-H4KAc4 binding assay was carried out by an amplified luminescence proximity homogeneous assay. The specific method is described below.
H4KAc4 peptide (available from Toray Research Center, Inc., sequence SGRGK(Ac)GGK(Ac)GLGK(Ac)GGAK(Ac)RHR-K(Biotin)-NH2) was dissolved in 1×Assay buffer to prepare 1 mM H4KAc4 peptide stock solution.
N-terminal His tag/C-terminal FLAG tag-fused type Recombinant BRD4 (44-168) protein (available from Active Motif, Cat No. 31380) was diluted with 1×Assay buffer to 1,250-fold to prepare 250 nM BRD4 solution.
1% DMSO solution (control) and 2 μL of each compound solution in each concentration were added to each well of AlphaPlate-384 (from PerkinElmer, Cat No. 6008350). Next, 2 μL of 250 nM BRD4 solution was added to each well of AlphaPlate-384. Further, 2 μL of 250 nM H4KAc4 peptide solution was added to each well of AlphaPlate-384. After addition of the 250 nM H4KAc4 peptide solution, the mixture was allowed to stand at room temperature under light shielding for 60 minutes, and 4 μL of AlphaScreen beads were added to each well of AlphaPlate-384. After addition of the AlphaScreen beads, the mixture was allowed to stand at room temperature under light shielding for 60 minutes, emission at 520-620 nm upon excitation at 680 nm was detected by EnVision multilabel counter (from PerkinElmer), and binding of BRD4 and H4KAc4 was detected. Incidentally, the evaluation of each compound was carried out in duplicate (2 well per 1 compound).
The BRD4 inhibition rate (%) was calculated by the following equation using Microsoft EXCEL 2010. BRD4 inhibition rate (%)=100−{(luminescence intensity average value of each compound added well)−(average value of luminescence intensity of blank well))/(average value of luminescence intensity of control well)−(average value of luminescence intensity of blank well)}×100
(In general: In Alpha technology, singlet oxygen from a donor bead excites a nearby acceptor bead.)

Take `Cc1sc2c(c1C)C(c1ccc(Cl)cc1)=NN(Cc1ncccc1Cl)c1nnc(C)n1-2` [Example 24, 4-(4-chlorophenyl)-6-((3-chloropyridin-2-yl)methyl)-2,3,9-trimethyl-6H-thieno[2,3-e][1,2,4]triazolo[3,4-c][1,2,4]triazepine]: the IC50 in the assay on NF-κB worked out at 1050 nM. Moreover, in assay [1], the inhibition at 10 µM amounted to 100%.
For `Cc1sc2c(c1C)C(c1ccc(Cl)cc1)=NN(Cc1ccc(F)nc1)c1nnc(C)n1-2` [Example 26, 4-(4-chlorophenyl)-6-((6-fluoropyridin-3-yl)methyl)-2,3,9-trimethyl-6H-thieno[2,3-e][1,2,4]triazolo[3,4-c][1,2,4]triazepine], in that order: 12.3 nM and 100%.
For `Cc1sc2c(c1C)C(c1ccccc1)=NNc1nnc(C)n1-2` [Example 27, 2,3,9-trimethyl-4-phenyl-6H-thieno[2,3-e][1,2,4]triazolo[3,4-c][1,2,4]triazepine], in that order: 3100 nM and 101%.
Taken in the same sequence, the figures for `Cc1sc2c(c1C)C(c1ccccc1)=NN(Cc1ccccc1)c1nnc(C)n1-2` [Example 29, 6-benzyl-2,3,9-trimethyl-4-phenyl-6H-thieno[2,3-e][1,2,4]triazolo[3,4-c][1,2,4]triazepine] were 265 nM and 101%.
The compound `COc1cccc(CN2N=C(c3ccccc3)c3c(sc(C)c3C)-n3c(C)nnc32)c1` [Example 33, 6-(3-methoxybenzyl)-2,3,9-trimethyl-4-phenyl-6H-thieno[2,3-e][1,2,4]triazolo[3,4-c][1,2,4]triazepine] returned a concentration for half-maximal inhibition (IC50) in the assay on NF-κB of 87.2 nM. Moreover, the inhibition at 10 µM in assay [1] was found to be 99.2%.
For `COc1ccccc1CN1N=C(c2ccc(Cl)cc2)c2c(sc(C)c2C)-n2c(C)nnc21` [Example 34, 4-(4-chlorophenyl)-6-(2-methoxybenzyl)-2,3,9-trimethyl-6H-thieno[2,3-e][1,2,4]triazolo[3,4-c][1,2,4]triazepine], in that order: 612 nM and 100%.
For `Cc1sc2c(c1C)C(c1ccc(Cl)cc1)=NN(Cc1ccc(Cl)cn1)c1nnc(C)n1-2` [Example 36, 4-(4-chlorophenyl)-6-((5-chloropyridin-2-yl)methyl)-2,3,9-trimethyl-6H-thieno[2,3-e][1,2,4]triazolo[3,4-c][1,2,4]triazepine], in that order: 401 nM and 100%.
`Cc1sc2c(c1C)C(c1ccc(Cl)cc1)=NN(Cc1cncc(Cl)c1)c1nnc(C)n1-2` [Example 39, 4-(4-chlorophenyl)-6-((5-chloropyridin-3-yl)methyl)-2,3,9-trimethyl-6H-thieno[2,3-e][1,2,4]triazolo[3,4-c][1,2,4]triazepine] came in with an IC50 in the assay with NF-κB of 620 nM. Besides, in assay [1], the inhibition at 10 µM is 100%.
Taken in the same sequence, the figures for `Cc1sc2c(c1C)C(c1ccc(Cl)cc1)=NN(Cc1cc(Cl)ccn1)c1nnc(C)n1-2` [Example 40, 4-(4-chlorophenyl)-6-((4-chloropyridin-2-yl)methyl)-2,3,9-trimethyl-6H-thieno[2,3-e][1,2,4]triazolo[3,4-c][1,2,4]triazepine] were 699 nM and 100%.
In the assay on NF-κB, `Cc1sc2c(c1C)C(c1ccc(Cl)cc1)=NN(Cc1ccnc(F)c1)c1nnc(C)n1-2` [Example 42, 4-(4-chlorophenyl)-6-((2-fluoropyridin-4-yl)methyl)-2,3,9-trimethyl-6H-thieno[2,3-e][1,2,4]triazolo[3,4-c][1,2,4]triazepine] gave a half-maximal inhibitory concentration (IC50) of 1150 nM. In addition, the inhibition at 10 µM in assay [1] turned out to be 100%.
Taken in the same sequence, the figures for `Cc1sc2c(c1C)C(c1ccc(Cl)cc1)=NN(Cc1cnccc1Cl)c1nnc(C)n1-2` [Example 43, 4-(4-chlorophenyl)-6-((4-chloropyridin-3-yl)methyl)-2,3,9-trimethyl-6H-thieno[2,3-e][1,2,4]triazolo[3,4-c][1,2,4]triazepine] were 1830 nM and 100%.
In the assay with NF-κB, `Cc1sc2c(c1C)C(c1ccc(Cl)cc1)=NN(CCc1c[nH]c3ccccc13)c1nnc(C)n1-2` [Example 44, 6-(2-(1H-indol-3-yl)ethyl)-4-(4-chlorophenyl)-2,3,9-trimethyl-6H-thieno[2,3-e][1,2,4]triazolo[3,4-c][1,2,4]triazepine] displayed an IC50 of 9850 nM. Also, the inhibition at 10 µM in assay [1] was found to be 99.3%.
Regarding `Cc1sc2c(c1C)C(c1ccc(Cl)cc1)=NN(Cc1cccs1)c1nnc(C)n1-2` [Example 45, 4-(4-chlorophenyl)-2,3,9-trimethyl-6-(thiophen-2-ylmethyl)-6H-thieno[2,3-e][1,2,4]triazolo[3,4-c][1,2,4]triazepine], the IC50 in the assay on NF-κB was 429 nM. Also, in assay [1], the inhibition at 10 µM stood at 99.9%.
Taken in the same sequence, the figures for `COc1cccc(CN2N=C(c3ccc(Cl)cc3)c3c(sc(C)c3C)-n3c(C)nnc32)n1` [Example 46, 4-(4-chlorophenyl)-6-((6-methoxypyridin-2-yl)methyl)-2,3,9-trimethyl-6H-thieno[2,3-e][1,2,4]triazolo[3,4-c][1,2,4]triazepine] were 683 nM and 100%.
Consider `COc1ccc(CN2N=C(c3ccc(Cl)cc3)c3c(sc(C)c3C)-n3c(C)nnc32)nc1` [Example 47, 4-(4-chlorophenyl)-6-((5-methoxypyridin-2-yl)methyl)-2,3,9-trimethyl-6H-thieno[2,3-e][1,2,4]triazolo[3,4-c][1,2,4]triazepine], for which half-maximal inhibition in the assay with NF-κB (IC50) was put at 554 nM. In addition, in assay [1], the inhibition at 10 µM was 100%.
Taken in the same sequence, the figures for `COc1ccnc(CN2N=C(c3ccc(Cl)cc3)c3c(sc(C)c3C)-n3c(C)nnc32)c1` [Example 48, 4-(4-chlorophenyl)-6-((4-methoxypyridin-2-yl)methyl)-2,3,9-trimethyl-6H-thieno[2,3-e][1,2,4]triazolo[3,4-c][1,2,4]triazepine] were 297 nM and 100%.
Taken in the same sequence, the figures for `COc1ccc(CN2N=C(c3ccc(Cl)cc3)c3c(sc(C)c3C)-n3c(C)nnc32)cn1` [Example 50, 4-(4-chlorophenyl)-6-((6-methoxypyridin-3-yl)methyl)-2,3,9-trimethyl-6H-thieno[2,3-e][1,2,4]triazolo[3,4-c][1,2,4]triazepine] were 355 nM and 100%.
For `COc1ccncc1CN1N=C(c2ccc(Cl)cc2)c2c(sc(C)c2C)-n2c(C)nnc21` [Example 51, 4-(4-chlorophenyl)-6-((4-methoxypyridin-3-yl)methyl)-2,3,9-trimethyl-6H-thieno[2,3-e][1,2,4]triazolo[3,4-c][1,2,4]triazepine], in the assay on NF-κB, the IC50 amounted to 265 nM. In addition, the inhibition at 10 µM in assay [1] was found to be 100%.
On to `Cc1sc2c(c1C)C(c1ccc(Cl)cc1)=NN(Cc1cccc(N)c1)c1nnc(C)n1-2` [Example 52, 3-((4-(4-chlorophenyl)-2,3,9-trimethyl-6H-thieno[2,3-e][1,2,4]triazolo[3,4-c][1,2,4]triazepin-6-yl)methyl)aniline], for which the midpoint of inhibition in the assay with NF-κB, the IC50, lay at 5230 nM. For the same compound, the inhibition at 10 µM in assay [1] came to 100%.
For `Cc1sc2c(c1C)C(c1ccc(Cl)cc1)=NN(Cc1cccc(O)c1)c1nnc(C)n1-2` [Example 53, 3-((4-(4-chlorophenyl)-2,3,9-trimethyl-6H-thieno[2,3-e][1,2,4]triazolo[3,4-c][1,2,4]triazepin-6-yl)methyl)phenol], in that order: 2980 nM and 100%.
